Measured values as given in US11649240B2, “Substituted 4-phenylpiperidines, their preparation and use” (The Trustees of Columbia University in the City of New York, priority 2014, dated 2023).
Where a name gives a salt, the structure may show the parent alone.

Tests used:
Abca4−/− mice = assay: Bisretinoid accumulation in eyes of Abca4−/− mice; type: in vivo, mouse; conditions: Abca4−/− mice starting at 17 weeks old, 25 mg/kg for 12 weeks
Procedure: (§1) Abca4−/− mice have A2E levels in the ˜15-19 pmoles/eye range at 17 weeks old. Mice, starting at 17 weeks old, were treated with 25 mg/kg of Compound 81 for 12 weeks.

serum RBP4 = serum RBP4 (Mus musculus (Mouse), UniProt Q00724); assay: Serum RBP4 levels in Abca4−/− mice; type: in vivo; conditions: 25 mg/kg for 12 weeks
Procedure: as §1

RBP4-TTR interaction = conditions: cited from earlier work
serum RBP4 and retinol = conditions: in vivo; cited from earlier work

Row | SMILES | serum RBP4 reduction in treated mice (serum RBP4; present-tense example) | bisretinoid accumulation in Abca4−/− mouse model (Abca4−/− mice; present-tense example) | other results
1 | O=C(c1n[nH]c2c1CNCC2)N1CCC(c2ccc(F)c(F)c2C(F)(F)F)CC1 [Compound 36, (4-(3,4-Difluoro-2-(trifluoromethyl)phenyl)piperidin-1-yl)(4,5,6,7-tetrahydro-1H-pyrazolo[4,3-c]pyridin-3-yl)methanone Trifluoroacetic Acid Salt] | significant serum RBP4 reduction | inhibit bisretinoid accumulation | –
2 | CC1=C(/C=C/C(C)=C/C=C/C(C)=C/C(=O)Nc2ccc(O)cc2)C(C)(C)CCC1 [fenretinide, N-(4-hydroxy-phenyl)retinamide] | – | – | disruption of RBP4-TTR interaction (RBP4-TTR interaction): disrupt the RBP4-TTR interaction; ocular all-trans retinol uptake and visual cycle (serum RBP4 and retinol): inhibit ocular all-trans retinol uptake and slow down the visual cycle
3 | O=C(c1n[nH]c2c1CNC2)N1CCC(c2ccc(F)c(F)c2C(F)(F)F)CC1 [Compound 38, (4-(3,4-Difluoro-2-(trifluoromethyl)phenyl)piperidin-1-yl)(1,4,5,6-tetrahydropyrrolo[3,4-c]pyrazol-3-yl)methanone Hydrochloride] | significant serum RBP4 reduction | inhibit bisretinoid accumulation | –
4 | CC(=O)N1CCc2c(C(=O)N3CCC(c4ccc(F)c(F)c4C(F)(F)F)CC3)n[nH]c2C1 [Compound 81, 1-(3-(4-(3,4-Difluoro-2-(trifluoromethyl)phenyl)piperidine-1-carbonyl)-4,5-dihydro-1H-pyrazolo[3,4-c]pyridin-6 (7H)-yl)ethanone] | – | – | bisretinoid accumulation in Abca4−/− mouse model (Abca4−/− mice): inhibited bisretinoid accumulation; serum RBP4 reduction in treated mice (serum RBP4): significant serum RBP4 reduction

Second part, led by results:

Row | serum RBP4 reduction in treated mice (serum RBP4; present-tense example) | SMILES | bisretinoid accumulation in Abca4−/− mouse model (Abca4−/− mice; present-tense example) | other results
5 | significant serum RBP4 reduction | O=C(c1n[nH]c2c1CCNC2)N1CCC(c2ccc(F)c(F)c2C(F)(F)F)CC1 [Compound 34] | inhibit bisretinoid accumulation | –
6 | significant serum RBP4 reduction | O=C(c1n[nH]c2c1CCNC2)N1CCC(c2cccc(F)c2C(F)(F)F)CC1 [Compound 30, (4-(3-Fluoro-2-(trifluoromethyl)phenyl)piperidin-1-yl) (4,5,6,7-tetrahydro-1H-pyrazolo[3,4-c]pyridin-3-yl)methanone Hydrochloride] | inhibit bisretinoid accumulation | –
7 | significant serum RBP4 reduction | O=C(c1n[nH]c2c1CCNC2)N1CCC(c2cccc(F)c2Cl)CC1 [Compound 40, (4-(2-Chloro-3-fluorophenyl)piperidin-1-yl) (4,5,6,7-tetrahydro-1H-pyrazolo[3,4-c]pyridin-3-yl)methanone Hydrochloride] | inhibit bisretinoid accumulation | –
8 | significant serum RBP4 reduction | O=C(c1n[nH]c2c1CNCC2)N1CCC(c2cccc(F)c2Cl)CC1 [Compound 42, (4-(2-Chloro-3-fluorophenyl)piperidin-1-yl)(4,5,6,7-tetrahydro-1H-pyrazolo[4,3-c]pyridin-3-yl)methanone Hydrochloride] | inhibit bisretinoid accumulation | –
